# From US20260200926A1, “TREM2 MODULATORS” (Muna Therapeutics ApS, priority 2022, published 2026)
# Counter-ions that a name gives are not always drawn. Like-named read-outs stand apart in the source and are kept apart here.
# Molecular target: T1, Human TREM2 (Homo sapiens, UniProt Q9NZC2)
# T1 construct: expressed in transfected cells
# Experiment: Human TREM2 activity: cellular phosphorylation of Syk (AlphaLISA SureFire Ultra p-SYK) in HEK293/DAP12+TREM2 stable cell line
# Type: cell-based
# Details: for Emax: maximal response relative to reference agonist example 1B (remaining examples)
# Method in brief: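 The read-out was p-Syk (Tyr525/526), measured by AlphaLISA in lysates of a stable HEK293/DAP12+TREM2 clone. Cells (10,000/well, plated the day before) received compound for 30 min at 37 °C. Dosing used 8 points in quadruplicate, top 100 μM with 1:6 dilution, 0.5% final DMSO.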
# [1] = phospho-Syk AlphaLISA signal, HEK293/DAP12+TREM2 cells, concentration giving 50% of maximal response, read-out: EC50
# T1 sequence (Q9NZC2 19-230): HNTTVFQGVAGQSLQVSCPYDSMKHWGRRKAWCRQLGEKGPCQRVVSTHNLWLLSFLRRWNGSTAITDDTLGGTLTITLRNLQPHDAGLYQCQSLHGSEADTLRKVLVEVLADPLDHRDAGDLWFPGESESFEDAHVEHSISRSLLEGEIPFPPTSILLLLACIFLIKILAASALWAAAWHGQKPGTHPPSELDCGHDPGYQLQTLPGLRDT
# T1 sequence (O43914 22-113 partner): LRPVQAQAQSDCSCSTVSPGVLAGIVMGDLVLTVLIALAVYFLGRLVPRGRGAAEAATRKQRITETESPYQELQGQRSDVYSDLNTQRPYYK
"Emax (HEK293, read-out: Emax) [%]",EC50 [1] [nM],Structure (SMILES),EC50 [nM],Emax
< 75,10 to 100,"Cc1nc2c(-c3ccc(Cl)cc3F)nc(N3CCOC(c4cn[nH]c4)C3)nc2c(=O)n1C (centres unmarked) [Example 39, 6-(2-(1H-pyrazol-4-yl)morpholino)-8-(4-chloro-2-fluorophenyl)-2,3-dimethylpyrimido[5,4-d]pyrimidin-4 (3H)-one]",,
75 to 110,10 to 100,"Cc1nc2c(-c3ccc(Cl)cc3F)nc(N3CCOC(c4cnn(C5COC5)c4)C3)nc2c(=O)n1C (centres unmarked) [Example 40, 8-(4-chloro-2-fluorophenyl)-2,3-dimethyl-6-(2-(1-(oxetan-3-yl)-1H-pyrazol-4-yl)morpholino)pyrimido[5,4-d]pyrimidin-4 (3H)-one]",,
75 to 110,100 to 1000,"Cc1nc2c(-c3ccc(Cl)cc3F)nc(N3CCOC(c4cnn(C5CNC5)c4)C3)nc2c(=O)n1C (centres unmarked) [Example 41, 6-(2-(1-(azetidin-3-yl)-1H-pyrazol-4-yl)morpholino)-8-(4-chloro-2-fluorophenyl)-2,3-dimethylpyrimido[5,4-d]pyrimidin-4 (3H)-one hydrochloride salt]",,
75 to 110,100 to 1000,"Cc1nc2c(-c3ccc(Cl)cc3F)nc(N3CCOC(c4ccnn4C)C3)nc2c(=O)n1C (centres unmarked) [Example 44, 8-(4-chloro-2-fluorophenyl)-2,3-dimethyl-6-(2-(1-methyl-1H-pyrazol-5-yl)morpholino)pyrimido[5,4-d]pyrimidin-4(3H)-one]",,
< 75,10 to 100,"Cc1csc(C2CN(c3nc(-c4ccc(Cl)cc4F)c4nc(C)n(C)c(=O)c4n3)CCO2)n1 (centres unmarked) [Example 45, 8-(4-chloro-2-fluorophenyl)-2,3-dimethyl-6-(2-(4-methylthiazol-2-yl)morpholino)pyrimido[5,4-d]pyrimidin-4(3H)-one]",,
< 75,100 to 1000,"Cc1n[nH]c(C2CN(c3nc(-c4ccc(Cl)cc4F)c4nc(C)n(C)c(=O)c4n3)CCO2)n1 (centres unmarked) [Example 46, 8-(4-chloro-2-fluorophenyl)-2,3-dimethyl-6-(2-(3-methyl-1H-1,2,4-triazol-5-yl)morpholino)pyrimido[5,4-d]pyrimidin-4(3H)-one]",,
< 75,10 to 100,"Cc1nc2c(-c3ccc(Cl)cc3F)nc(N3CCOC(c4nccs4)C3)nc2c(=O)n1C (centres unmarked) [Example 48, 8-(4-chloro-2-fluorophenyl)-2,3-dimethyl-6-(2-(thiazol-2-yl)morpholino)pyrimido[5,4-d]pyrimidin-4(3H)-one]",,
< 75,> 1000,"CNC(=O)C1CN(c2nc(-c3ccc(Cl)cc3F)c3nc(C)n(C)c(=O)c3n2)CCO1 (centres unmarked) [Example 49, 4-(4-(4-chloro-2-fluorophenyl)-6,7-dimethyl-8-oxo-7,8-dihydropyrimido[5,4-d]pyrimidin-2-yl)-N-methylmorpholine-2-carboxamide]",,
75 to 110,100 to 1000,"COCC1CN(c2nc(-c3ccc(Cl)cc3F)c3nc(C)n(C)c(=O)c3n2)CCO1 (centres unmarked) [Example 52, 8-(4-chloro-2-fluorophenyl)-6-(2-(methoxymethyl)morpholino)-2,3-dimethylpyrimido[5,4-d]pyrimidin-4(3H)-one]",,
< 75,> 1000,"Cc1nc2c(-c3ccc(Cl)cc3F)nc(N3CCOC(C)(c4cnn(C)c4)C3)nc2c(=O)n1C (centres unmarked) [Example 55, 8-(4-chloro-2-fluorophenyl)-2,3-dimethyl-6-(2-methyl-2-(1-methyl-1H-pyrazol-4-yl)morpholino)pyrimido[5,4-d]pyrimidin-4(3H)-one]",,
75 to 110,100 to 1000,"Cc1nc2c(-c3ccc(Cl)cc3F)nc(N3CCOC(c4ncon4)C3)nc2c(=O)n1C (centres unmarked) [Example 58, 6-(2-(1,2,4-oxadiazol-3-yl)morpholino)-8-(4-chloro-2-fluorophenyl)-2,3-dimethylpyrimido[5,4-d]pyrimidin-4(3H)-one]",,
< 75,100 to 1000,"Cc1nc2c(-c3ccc(Cl)cc3F)nc(N3CCOC(c4cnn(C)c4)C3)nc2c(=O)[nH]1 (centres unmarked) [Example 60, 8-(4-chloro-2-fluorophenyl)-2-methyl-6-(2-(1-methyl-1H-pyrazol-4-yl)morpholino)pyrimido[5,4-d]pyrimidin-4 (3H)-one]",,
< 75,1 to 10,"Cc1nc2c(-c3ccc(Cl)cc3F)nc(N3CC(c4cnn(C)c4)OC(C)(C)C3)nc2c(=O)n1C (centres unmarked) [Example 62, 8-(4-chloro-2-fluorophenyl)-6-(2,2-dimethyl-6-(1-methyl-1H-pyrazol-4-yl)morpholino)-2,3-dimethylpyrimido[5,4-d]pyrimidin-4 (3H)-one]",,

# Further lines, the compound ahead of its results:
Structure (SMILES),"Emax (HEK293, read-out: Emax) [%]",EC50 [1] [nM],EC50 [nM],Emax
"COCCN1CCN(c2nc(-c3ccc(Cl)cc3F)c3nc(C)n(C)c(=O)c3n2)CC1c1cnn(C)c1 (centres unmarked) [Example 34, 8-(4-chloro-2-fluorophenyl)-6-(4-(2-methoxyethyl)-3-(1-methyl-1H-pyrazol-4-yl)piperazin-1-yl)-2,3-dimethylpyrimido[5,4-d]pyrimidin-4(3H)-one]",< 75,100 to 1000,,
"Cc1ncc(C2CN(c3nc(-c4ccc(Cl)cc4F)c4nc(C)n(C)c(=O)c4n3)CCO2)cn1 (centres unmarked) [Example 35, 8-(4-chloro-2-fluorophenyl)-2,3-dimethyl-6-(2-(2-methylpyrimidin-5-yl)morpholino)pyrimido[5,4-d]pyrimidin-4 (3H)-one]",,,10 to 100,+ (<75%)
"Cc1nc2c(-c3ccc(Cl)cc3F)nc(N3CCOC(c4ccn(C)n4)C3)nc2c(=O)n1C (centres unmarked) [Example 36, 8-(4-chloro-2-fluorophenyl)-2,3-dimethyl-6-(2-(1-methyl-1H-pyrazol-3-yl)morpholino)pyrimido[5,4-d]pyrimidin-4 (3H)-one]",,,100 to 1000,++ (75-110%)
"Cc1nc2c(-c3ccc(Cl)cc3F)nc(N3CCOC(c4cnn(C5CN(C)C5)c4)C3)nc2c(=O)n1C (centres unmarked) [Example 42, 8-(4-chloro-2-fluorophenyl)-2,3-dimethyl-6-(2-(1-(1-methylazetidin-3-yl)-1H-pyrazol-4-yl)morpholino)pyrimido[5,4-d]pyrimidin-4 (3H)-one]",< 75,10 to 100,,
"Cc1nnc(C2CN(c3nc(-c4ccc(Cl)cc4F)c4nc(C)n(C)c(=O)c4n3)CCO2)o1 (centres unmarked) [Example 43, 8-(4-chloro-2-fluorophenyl)-2,3-dimethyl-6-(2-(5-methyl-1,3,4-oxadiazol-2-yl)morpholino)pyrimido[5,4-d]pyrimidin-4(3H)-one]",< 75,10 to 100,,
"Cc1nc2c(-c3ccc(Cl)cc3F)nc(N3CCOC(c4cc[nH]n4)C3)nc2c(=O)n1C (centres unmarked) [Example 47, 6-(2-(1H-pyrazol-3-yl)morpholino)-8-(4-chloro-2-fluorophenyl)-2,3-dimethylpyrimido[5,4-d]pyrimidin-4(3H)-one]",< 75,100 to 1000,,
"Cc1nc(C2CN(c3nc(-c4ccc(Cl)cc4F)c4nc(C)n(C)c(=O)c4n3)CCO2)no1 (centres unmarked) [Example 50, 8-(4-chloro-2-fluorophenyl)-2,3-dimethyl-6-(2-(5-methyl-1,2,4-oxadiazol-3-yl)morpholino)pyrimido[5,4-d]pyrimidin-4(3H)-one]",< 75,10 to 100,,
"Cc1nc2c(-c3ccc(Cl)cc3F)nc(N3CCOC(C(=O)N(C)C)C3)nc2c(=O)n1C (centres unmarked) [Example 51, 4-(4-(4-chloro-2-fluorophenyl)-6,7-dimethyl-8-oxo-7,8-dihydropyrimido[5,4-d]pyrimidin-2-yl)-N,N-dimethylmorpholine-2-carboxamide]",75 to 110,> 1000,,
"Cc1nc2c(-c3ccc(Cl)cc3F)nc(N3CCOC(CN(C)C)C3)nc2c(=O)n1C (centres unmarked) [Example 53, 8-(4-chloro-2-fluorophenyl)-6-(2-((dimethylamino)methyl)morpholino)-2,3-dimethylpyrimido[5,4-d]pyrimidin-4(3H)-one]",75 to 110,100 to 1000,,
"Cc1nc2c(-c3ccc(Cl)cc3F)nc(N3CCOC4(CCCC4)C3)nc2c(=O)n1C [Example 54, 8-(4-chloro-2-fluorophenyl)-2,3-dimethyl-6-(6-oxa-9-azaspiro[4.5]decan-9-yl)pyrimido[5,4-d]pyrimidin-4(3H)-one]",< 75,> 1000,,
"Cc1nc2c(-c3ccc(Cl)cc3F)nc(N3CCOC4(CCN(C)CC4)C3)nc2c(=O)n1C [Example 56, 8-(4-chloro-2-fluorophenyl)-2,3-dimethyl-6-(9-methyl-1-oxa-4,9-diazaspiro[5.5]undecan-4-yl)pyrimido[5,4-d]pyrimidin-4(3H)-one]",< 75,> 1000,,
"Cc1nc2c(-c3ccc(Cl)cc3F)nc(N3CCOC(C)(C)C3)nc2c(=O)n1C [Example 57, 8-(4-chloro-2-fluorophenyl)-6-(2,2-dimethylmorpholino)-2,3-dimethylpyrimido[5,4-d]pyrimidin-4(3H)-one]",< 75,> 1000,,
"COc1ccc(Cn2c(C)nc3c(-c4ccc(Cl)cc4F)nc(N4CCOC(c5cnn(C)c5)C4)nc3c2=O)cc1 (centres unmarked) [Example 59, 8-(4-chloro-2-fluorophenyl)-3-(4-methoxybenzyl)-2-methyl-6-(2-(1-methyl-1H-pyrazol-4-yl)morpholino)pyrimido[5,4-d]pyrimidin-4(3H)-one]",75 to 110,100 to 1000,,
"COCCn1c(C)nc2c(-c3ccc(Cl)cc3F)nc(N3CCOC(c4cnn(C)c4)C3)nc2c1=O (centres unmarked) [Example 61, 8-(4-chloro-2-fluorophenyl)-3-(2-methoxyethyl)-2-methyl-6-(2-(1-methyl-1H-pyrazol-4-yl)morpholino)pyrimido[5,4-d]pyrimidin-4(3H)-one]",< 75,10 to 100,,
"Cc1nc2c(-c3ccc(Cl)cc3F)nc(N3CCC(c4cnn(C)c4)C3)nc2c(=O)n1C (centres unmarked) [Example 63, 8-(4-chloro-2-fluorophenyl)-2,3-dimethyl-6-[3-(1-methyl-1H-pyrazol-4-yl)pyrrolidin-1-yl]-3H,4H-pyrimido[5,4-d][1,3]diazin-4-one]",< 75,10 to 100,,
